Data published in patent US8252814B2, “Agents and crystals for improving excretory potency of urinary bladder” (priority 1998, dated 2012).

Target: T1, human erythrocyte-derived acetylcholine esterase (Homo sapiens, UniProt P22303)
T1 construct: Acetylcholinesterase of human erythrocyte origin (Sigma Chemical Co.); purchased Sigma Chemical Co; host or cells: human erythrocytes (natural source)
Assay: Determination of the activity to inhibit the acetylcholine esterase of the crystals (Ellman method), Experimental Example 5
Type: biochemical
Conditions: at least three experiments
Experimental: The activity to inhibit the acetylcholine esterase of the crystals obtained in Example 1 was determined according to the acetylthiocholine method (the Ellman method) by the use of a human erythrocyte-derived acetylcholine esterase.
A human erythrocyte-derived acetylcholine esterase (Sigma Chemical Company) was dissolved into distilled water to obtain a standard enzyme preparation with an enzyme concentration of 0.2 IU/mL. […]
The activity to inhibit the acetylcholine esterase of the crystals obtained in Example 1 was determined according to the acetylthiocholine method (the ElIman method) by the use of a human erythrocyte-derived acetylcholine esterase.
A human erythrocyte-derived acetylcholine esterase (Sigma Chemical Company) was dissolved into distilled water to obtain a standard enzyme preparation with an enzyme concentration of 0.2 IU/mL. […] As soon as 50 μl of a 4-mM solution of acetylthiocholine iodide (Sigma Chemical Company) was added and shaking was started again, every increment in absorbance at the wavelength of 414 nm at an interval of 30 seconds was determined for 10 minutes. R=5.74×10^−7×ΔA (wherein R indicates an enzyme activity (mol) and ΔA indicates an increment in absorbance at the wavelength of 414 nm). […] Furthermore, the activity to inhibit the acetylcholine esterase of distigmine was determined in a manner similar to that described in the above method.

T1 sequence (P22303 32-617 isoform P22303-2 limits assumed): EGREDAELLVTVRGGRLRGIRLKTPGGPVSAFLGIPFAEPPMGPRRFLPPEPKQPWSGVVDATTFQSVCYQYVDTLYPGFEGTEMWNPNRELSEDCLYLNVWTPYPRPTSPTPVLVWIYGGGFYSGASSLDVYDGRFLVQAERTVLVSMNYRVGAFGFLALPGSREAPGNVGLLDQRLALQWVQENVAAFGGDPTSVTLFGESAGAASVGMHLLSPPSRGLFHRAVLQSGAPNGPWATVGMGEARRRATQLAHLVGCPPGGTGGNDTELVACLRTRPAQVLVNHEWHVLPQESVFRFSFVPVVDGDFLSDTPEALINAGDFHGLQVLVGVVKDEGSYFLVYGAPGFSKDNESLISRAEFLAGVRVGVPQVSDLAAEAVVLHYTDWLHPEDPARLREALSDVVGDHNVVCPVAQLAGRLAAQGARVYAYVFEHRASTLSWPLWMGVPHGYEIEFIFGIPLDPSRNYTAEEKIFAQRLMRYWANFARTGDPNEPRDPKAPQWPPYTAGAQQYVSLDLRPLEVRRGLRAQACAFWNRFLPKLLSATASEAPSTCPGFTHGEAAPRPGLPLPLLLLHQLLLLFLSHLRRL

CN(CCCCCCN(C)C(=O)Oc1ccc[n+](C)c1)C(=O)Oc1ccc[n+](C)c1 [Distigmine, reference compound]
IC50: 652 nM
